{"source": "patent US11298402B2", "about": "“Lysosomal degradation of lipids and proteins and method of use thereof” (University of Ottawa, priority 2015, dated 2022)", "key": {"[1]": {"tested_on": "McA-RH7777 cells (A18-C3)", "assay": "Live imaging of lysosomal motility and lysosome-CLD interaction (kiss-and-run)", "type": "cell-based, rat", "experimental": "In certain non-limiting examples described herein, McA-RH7777 cells stably expressing human apoB-100 and human apoC-III (designated A18-C3) were used for the studies. […] In addition, these studies, particularly those concerning EPA- or DHA-triggered lysosomal motility and CLD degradation, were also performed using primary rat hepatocytes. Transfection of plasmids encoding proteins of interest, or transfection of siRNA specific for silencing target gene expression, was achieved using the FuGENE HP Extreme reagent (Roche). Representative gene silencing siRNA sequences, which are not meant to be limiting, are described in Table 1, and plasmids encoding proteins of interest are described in Table 2. The effectiveness of siRNA silencing was verified by Western-blotting of cellular content of the target proteins, and by intracellular localization assay using siRNA-Tracker (Mirus Bioscience). Twenty-four h after plasmid transfection, or 48 h after siRNA transfection, the cells were cultured in lipid-rich media containing fetal bovine serum (20%) and OA (0.4 mM). The lipid-laden cells were switched to fresh media supplemented with OA or EPA (0.4 mM). In live imaging experiments, LipidTOX Red (Life Technologies) and LysoTracker (Life Technologies) were added to media prior to EPA treatment, to visualize lipid droplets and lysosomes, respectively. For visualizing peroxisomes, Peroxisome-GFP (Invitrogen) was introduced to the cells 24 h prior to experiments. Quantification of cell lipid contents was achieved either by direct mass measurement (HPTLC) and counting the number of lipid droplets using Image J Lipid Droplet Counter Plug-In, or indirectly by Western blot analysis of cellular content of ADRP. Secretion of apoB and TG-rich lipoprotein was determined by Western blot analysis and metabolic labeling. Mitochondrial β-oxidation was measured using MitoSOX Red (Life Technologies) in situ. Autophagic flux was determined by using Cyto-ID assay (Enzo Life Science) and by monitoring GFP-LC3 clustering in situ. Interaction of Arl8b and subunits of the HOPS complex was determined in situ by the proximity ligation assay (Olink Biosience). Cytoplasmic pH was measured using the cytosolic pHrodo indicator reagent (Invitrogen). Live imaging of fluorescent-tagged proteins was performed 1 h post-EPA treatment. Cells were also collected at the time of EPA treatment for transmission EM and tomography, as well as immuno-EM. For movies, cells were imaged at 60 sec intervals every 5 min, for a total of 30 min.\nCells were grown on 35-mm glass bottom dishes (Ibidi GmbH München, Germany) for 16 h in DMEM supplemented with FBS (20%) and OA (0.4 mM). Cells were imaged using a Zeiss 510 META laser scanning confocal microscope with a heated CO2-controlled stage (5% CO2 at 37° C.). Images were captured at a frame-rate of 30 frame/sec using a 63×. N.A.1.4 objective. Recommended laser lines and filter combinations were used for each dye. For visualization of lipid droplets, lysosomes, mitochondria, and mitochondrial β-oxidation, the respective reagents LipidTOX Red (Invitrogen), LysoTracker (Life Technology), MitoTracker (Life Technology), MitoSox Red (Invitrogen), and Peroxisome-GFP BacMam2.0 (Invitrogen) were introduced into the cells, according to manufacturers' recommendations, prior to EPA treatment.\nCells were cultured with lipid-rich media containing OA (0.4 mM) for 16 h. The lipid-laden cells were switched to fresh media containing EPA (0.4 mM) for 1 h, and the lysosomal movement towards lipid droplets was recorded by time-lapse microscopy. Fluorescent intensity of lysosomal signals at the periphery of selected individual lipid droplet was measured using Image J Live Intensity Profiler Plug-in^31-33 over a period of 40 sec. Quantification for each condition was carried out for 60 individual lipid droplets from three independent experiments. Constant threshold was applied to all of the images in each experiment."}, "[2]": {"tested_on": "McA-RH7777 cells (A18-C3)", "assay": "Measurement of cytosolic pH (pHrodo)", "type": "cell-based, rat", "conditions": "OA or EPA treatment", "experimental": "In certain non-limiting examples described herein, McA-RH7777 cells stably expressing human apoB-100 and human apoC-III (designated A18-C3) were used for the studies. […] In addition, these studies, particularly those concerning EPA- or DHA-triggered lysosomal motility and CLD degradation, were also performed using primary rat hepatocytes. Transfection of plasmids encoding proteins of interest, or transfection of siRNA specific for silencing target gene expression, was achieved using the FuGENE HP Extreme reagent (Roche). […] Quantification of cell lipid contents was achieved either by direct mass measurement (HPTLC) and counting the number of lipid droplets using Image J Lipid Droplet Counter Plug-In, or indirectly by Western blot analysis of cellular content of ADRP. Secretion of apoB and TG-rich lipoprotein was determined by Western blot analysis and metabolic labeling. Mitochondrial β-oxidation was measured using MitoSOX Red (Life Technologies) in situ. Autophagic flux was determined by using Cyto-ID assay (Enzo Life Science) and by monitoring GFP-LC3 clustering in situ. Interaction of Arl8b and subunits of the HOPS complex was determined in situ by the proximity ligation assay (Olink Biosience). Cytoplasmic pH was measured using the cytosolic pHrodo indicator reagent (Invitrogen). […]"}, "hepatic cells": {"tested_on": "hepatic cells", "assay": "Prolonged oleate treatment (OA-induced steatosis) of hepatic cells", "type": "cell-based", "conditions": "oleate 0.4 mM for up to 3 days", "text": "FIG. 36 illustrates that the LD content in cells cultured under lipid-rich conditions may be manipulated by expression of different forms of Arl8b. Images in the top row show position of lysosomes in cells cultured in a lipid-rich medium (i.e. supplemented with oleate) for up to 4 days. After 1-day treatment with oleate, lysosomes (stained with LysoTracker, green) were accumulated in the perinuclear regions of cells. However after 2-day oleate treatment, lysosomes were relocated towards the LDs at cell periphery. The relocation of lysosomes from the perinuclear region toward cell periphery indicates perturbed lysosomal motility under oleate-treatment conditions, which leads to prolonged association of lysosomes with LDs. Accumulation/higher interaction of lysosomes on LDs became more pronounced after 3- and 4-day treatment with oleate, with clear rings of lysosomes around LDs. Expression of the GDP-bound form of Arl8b, or Arl8b^T34N (or Arl8b “DN”, dominant negative), protects hepatocytes from accumulation of LDs upon long-term treatment with oleate. Note that even after 3 days, cells expressing Arl8b “DN” were healthy and accumulated low numbers of LDs (middle row). In contrast, expression of the GTP-bound form of Arl8b, or Arl8b^Q75L (or Arl8b “DA”, dominant active), exacerbated accumulation of LDs in cells (images in the bottom row). In fact, the cells could not tolerate long-term treatment and started to die after day 2. This situation may be similar to that in advanced levels of fatty liver, which causes hepatocyte apoptosis;\nIn these cells, lysosomes were continuously in contact with CLD, indicative of stalled lysosomal motility. This persistent lysosomal interaction with CLDs (i.e. “kiss” without “run”) clearly indicates the interfered process of microautophagy and lack of a mechanism in the cells, after prolonged OA treatment, that facilitates dissociation of lysosomes from CLDs, blocking the engulfment process. Thus, phenotypically, accumulation of CLD in cells cultured in lipid-rich media (e.g. supplementation with 0.4 mM OA) is invariably associated with a compromised lysosomal motility (i.e. kiss-and-run)."}}, "data": [{"smiles": "CCCCCCCC/C=C\\CCCCCCCC(=O)O", "note": "[OA, oleic acid, reference compound]", "values": [{"measurement": "lysosomal motility and direct lysosomal interaction with CLD", "setting": "[1]; fatty acid added to lipid-laden cells, live imaging", "result": "reduced levels of interaction between lysosomes and lipid droplets"}, {"measurement": "activation of microautolipophagy", "setting": "[1]; oleate treatment", "result": "transient and is of low magnitude"}, {"measurement": "duration of the brief activation of microautolipophagy", "setting": "[1]; oleate treatment", "result": "10 to 15", "unit": "min"}, {"measurement": "cytoplasmic pH", "setting": "[2]", "result": "neutral"}, {"measurement": "steatosis (CLD accumulation)", "setting": "hepatic cells", "result": "developed severe steatosis"}]}]}
